Like-named read-outs stand apart in the source and are kept apart here.
Assays:
CLL cells = assay: Viability of activated CLL cells from patients, CellTiter-Glo 72 h (IC50, DSS); assay type: cell-based, human; settings: for IC50: Homo sapiens, CLL cell
Protocol: CLL cells from patients were stimulated by adherent murine L cells expressing CD40L, BAFF and April for 24 h. The L cells were then removed by immuno-magnetic separation. Washed CLL cells were plated into 384-well plate format (10,000 cells/well) and tested against crizotinib at 5 concentrations in 10-fold dilutions (plates dispensed by an Echo acoustic dispenser, LabCyte Inc., San Jose, CA, USA). The plate was incubated in a humidified environment at 37° C. and 5% CO2. Cell viability was determined after 72 h using the CellTiter-Glo (Promega, Madison, WI, USA) ATP assay according to the manufacturer's instructions and using an Envision 2102 Multilabel reader (PerkinElmer, Shelton, CT, USA). Relative percentage cell viability was calculated by normalising luminescence units for each well to negative (DMSO 0.1%) and positive (100 μM BzCl) control wells. Curve fitting was conducted to obtain IC50 values.
Quantitative scoring of differential drug sensitivity for individual drugs was calculated as drug sensitivity scores (DSS values, Yadav et al., Scientific Reports 4: 5193, 2014). DSS values were calculated for integrated multiple dose-response relationships in high-throughput compound testing as shown.

L363-BTZ = assay: Myeloma cell line viability, CCK-8, 24 hr; assay type: cell-based, human
Protocol: The Results are the means of 3 independent experiments. Note the concentration-dependent reduction of viability of myeloma cells.
The cell lines used were the human multiple myeloma cell lines L363 (DSMZ catalogue number ACC 49), AMO-1 (DSMZ catalogue number ACC 538) and ARH-77 (ATCC CRL-1621).
Multiple myeloma cell lines were maintained in RPMI-1640 culture medium (Sigma-Aldrich, Buchs, Switzerland) supplemented with 10% heat-inactivated fetal bovine serum (FBS), 100 μg/ml streptomycin and 100 U/ml penicillin/streptomycin (Sigma-Aldrich, Buchs, Switzerland). The bortezomib-resistant cell lines were established and maintained from their parental cell line by continuous drug exposure>12 months to their parental cell lines (Soriano et al, Leukemia 30: 2198-2207, 2016).
The viability of the cells was determined 24 hr post treatment using Cell Counting Kit-8 (CCK-8; MedChemExpress, NJ, USA) according to the manufacturer's instructions.

[1] = CLL cells from 21 patients, 72 h

`C[C@@H](Oc1cc(-c2cnn(C3CCNCC3)c2)cnc1N)c1c(Cl)ccc(F)c1Cl` [crizotinib, 3-[(1R)-1-(2,6-dichloro-3-fluorophenyl)ethoxy]-5-(1-piperidin-4-ylpyrazol-4-yl)pyridin-2-amine] was tested. Which “share of patients with CLL cells highly sensitive by drug sensitivity score (DSS)” value (CLL cells; 21 patients) did it give?
The value was “a third”.

And the “patients with susceptible CLL cells, cut-off DSS=10” value (CLL cells; CLL cells from 12 new patients)?
The value was 10/12.

And the “patient samples with CLL cells sensitive” value (CLL cells; [1])?
The value was 17 of 21.

And the “patient samples with CLL cells sensitive, percent” value (CLL cells; [1])?
The value was 81%.

What about the IC50 (CLL cells; 3 patient samples, read-out: IC50, highly sensitive CLL samples) of the same compound?
Its IC50 is less than 200 nM.

What about the IC50 (CLL cells; 3 patient samples, read-out: IC50, supersensitive CLL samples) of the same compound?
Its IC50 is less than 10 nM.

What about the IC50 (CLL cells; 11 patient samples, read-out: IC50, normally sensitive CLL samples) of the same compound?
Its IC50 is less than 2000 nM.

And the “patient samples highly sensitive” value (CLL cells; IgVH mutated CLL)?
The value was “Three out of 15”.

And the “patient samples with low sensitivity” value (CLL cells; IgVH mutated CLL)?
Its value is “Four of the 15”.

And the “patient samples highly sensitive” value (CLL cells; IgVH unmutated CLL)?
The value was “Four of six”.

And the “patient samples with low sensitivity” value (CLL cells; IgVH unmutated CLL)?
The value was “None”.

What about the IC50 (L363-BTZ; Homo sapiens, L363-BTZ, 24 hr treatment) of the same compound?
Its IC50 is 4150 nM.

And the cell viability (L363-BTZ; bortezomib-resistant clone of L363, 24 h)?
The cell viability was “The same was found to be the case”.
